Test results: patent publication US9226916B2, “Pyrrolidine derivatives” (HOFFMANN-LA ROCHE INC., priority 2009, dated 2016)

What follows are compounds tested against T1, recombinant human NK3 receptor (Homo sapiens, UniProt P29371) (assay: [3H]SR142801 competition binding assay). Conditions: not given.
T1 construct: expressed in transfected cells; host or cells: HEK293 cells, transient expression; membranes
T1 sequence (P29371 1-465): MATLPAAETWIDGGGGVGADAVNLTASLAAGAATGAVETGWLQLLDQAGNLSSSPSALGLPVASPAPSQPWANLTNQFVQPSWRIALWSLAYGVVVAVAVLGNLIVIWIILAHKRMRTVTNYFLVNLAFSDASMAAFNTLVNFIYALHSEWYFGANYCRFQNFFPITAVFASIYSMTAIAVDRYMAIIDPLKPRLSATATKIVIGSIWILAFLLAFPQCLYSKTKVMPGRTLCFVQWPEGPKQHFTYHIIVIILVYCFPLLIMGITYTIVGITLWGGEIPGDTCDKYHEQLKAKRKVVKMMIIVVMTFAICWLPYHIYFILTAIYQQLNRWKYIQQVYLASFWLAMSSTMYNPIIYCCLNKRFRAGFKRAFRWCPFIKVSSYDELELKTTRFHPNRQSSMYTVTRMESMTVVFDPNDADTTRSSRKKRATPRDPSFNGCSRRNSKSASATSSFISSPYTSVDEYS
Work on `CCCCOC(=O)N(C)[C@H]1CN(C(=O)C2CCN(CC3CC3)CC2)C[C@@H]1c1ccc(Cl)c(Cl)c1` (racemic) [Example 11, rac-[(3R,4S)-1-(1-Cyclopropylmethyl-piperidine-4-carbonyl)-4-(3,4-dichloro-phenyl)-pyrrolidin-3-yl]-methyl-carbamic acid butyl ester] yielded a Ki of 27.1 nM.
With `CN(C(=O)Oc1ccc(Cl)cc1)[C@H]1CN(C(=O)C2CCN(C(=O)C3(C)CC3)CC2)C[C@@H]1c1ccc(Cl)c(Cl)c1` (racemic) [Example 12, rac-{(3R,4S)-4-(3,4-Dichloro-phenyl)-1-[1-(1-methyl-cyclopropanecarbonyl)-piperidine-4-carbonyl]-pyrrolidin-3-yl}-methyl-carbamic acid 4-chloro-phenyl ester] the Ki was 0.6 nM.
`CN(C(=O)Oc1ccccc1)[C@H]1CN(C(=O)C2CCN(C(=O)C3(C)CC3)CC2)C[C@@H]1c1ccc(Cl)c(Cl)c1` (racemic) [Example 13, rac-{(3R,4S)-4-(3,4-Dichloro-phenyl)-1-[1-(1-methyl-cyclopropanecarbonyl)-piperidine-4-carbonyl]-pyrrolidin-3-yl}-methyl-carbamic acid phenyl ester] showed a Ki of 2 nM.
With `Cc1ccc(OC(=O)N(C)[C@H]2CN(C(=O)C3CCN(C(=O)C4(C)CC4)CC3)C[C@@H]2c2ccc(Cl)c(Cl)c2)cc1` (racemic) [Example 14, rac-{(3R,4S)-4-(3,4-Dichloro-phenyl)-1-[1-(1-methyl-cyclopropanecarbonyl)-piperidine-4-carbonyl]-pyrrolidin-3-yl}-methyl-carbamic acid p-tolyl ester] the Ki was 1.2 nM.
Work on `COc1ccc(OC(=O)N(C)[C@H]2CN(C(=O)C3CCN(C(=O)C4(C)CC4)CC3)C[C@@H]2c2ccc(Cl)c(Cl)c2)cc1` (racemic) [Example 15, rac-{(3R,4S)-4-(3,4-Dichloro-phenyl)-1-[1-(1-methyl-cyclopropanecarbonyl)-piperidine-4-carbonyl]-pyrrolidin-3-yl}-methyl-carbamic acid p-methoxyphenyl ester] yielded a Ki of 2.5 nM.
Compound `CN(C(=O)OCC(C)(C)C)[C@H]1CN(C(=O)C2CCN(C(=O)C3(C)CC3)CC2)C[C@@H]1c1ccc(Cl)c(Cl)c1` (racemic) [Example 22, rac-{(3R,4S)-4-(3,4-Dichloro-phenyl)-1-[1-(1-methyl-cyclopropanecarbonyl)-piperidine-4-carbonyl]-pyrrolidin-3-yl}-methyl-carbamic acid 2,2-dimethyl-propyl ester] has a Ki of 16.9 nM.
In the case of `CN(C(=O)OCC1CC1)[C@H]1CN(C(=O)C2CCN(C(=O)C3(C)CC3)CC2)C[C@@H]1c1ccc(Cl)c(Cl)c1` (racemic) [Example 24, rac-{(3R,4S)-4-(3,4-Dichloro-phenyl)-1-[1-(1-methyl-cyclopropanecarbonyl)-piperidine-4-carbonyl]-pyrrolidin-3-yl}-methyl-carbamic acid cyclopropylmethyl ester], the Ki is reported as 33.5 nM.
Work on `CN(C(=O)Oc1ccc(F)cc1)[C@H]1CN(C(=O)C2CCN(C(=O)C3(C)CC3)CC2)C[C@@H]1c1ccc(Cl)cc1` (racemic) [Example 26, rac-{(3R,4S)-4-(4-Chloro-phenyl)-1-[1-(1-methyl-cyclopropanecarbonyl)-piperidine-4-carbonyl]-pyrrolidin-3-yl}-methyl-carbamic acid 4-fluoro-phenyl ester] yielded a Ki of 2.9 nM.
For `CCCCOC(=O)N(C)[C@H]1CN(C(=O)C2CCN(C(=O)C3(C)CC3)CC2)C[C@@H]1c1ccc(Cl)cc1` (racemic) [Example 27, rac-{(3R,4S)-4-(4-Chloro-phenyl)-1-[1-(1-methyl-cyclopropanecarbonyl)-piperidine-4-carbonyl]-pyrrolidin-3-yl}-methyl-carbamic acid butyl ester], the Ki was 30.7 nM.
Compound `CN(C(=O)OCCC(C)(C)C)[C@H]1CN(C(=O)C2CCN(C(=O)C3(C)CC3)CC2)C[C@@H]1c1ccc(Cl)c(Cl)c1` (racemic) [Example 30, rac-{(3R,4S)-4-(3,4-Dichloro-phenyl)-1-[1-(1-methyl-cyclopropanecarbonyl)-piperidine-4-carbonyl]-pyrrolidin-3-yl}-methyl-carbamic acid 3,3-dimethyl-butyl ester] has a Ki of 10.3 nM.
`CN(C(=O)OCC1CCOCC1)[C@H]1CN(C(=O)C2CCN(C(=O)C3(C)CC3)CC2)C[C@@H]1c1ccc(Cl)c(Cl)c1` (racemic) [Example 31, rac-{(3R,4S)-4-(3,4-Dichloro-phenyl)-1-[1-(1-methyl-cyclopropanecarbonyl)-piperidine-4-carbonyl]-pyrrolidin-3-yl}-methyl-carbamic acid tetrahydro-pyran-4-ylmethyl ester] showed a Ki of 11.6 nM.
`CN(C(=O)OCC1CCCC1)[C@H]1CN(C(=O)C2CCN(C(=O)C3(C)CC3)CC2)C[C@@H]1c1ccc(Cl)c(Cl)c1` (racemic) [Example 32, rac-{(3R,4S)-4-(3,4-Dichloro-phenyl)-1-[1-(1-methyl-cyclopropanecarbonyl)-piperidine-4-carbonyl]-pyrrolidin-3-yl}-methyl-carbamic acid cyclopentylmethyl ester] gave a Ki of 1.4 nM.
In the case of `CN(C(=O)Oc1ccc(F)cc1)[C@H]1CN(C(=O)[C@H]2CC[C@H](O)CC2)C[C@@H]1c1ccc(Cl)c(Cl)c1` (racemic) [Example 37, rac-[(3R,4S)-4-(3,4-Dichloro-phenyl)-1-(trans-4-hydroxy-cyclohexanecarbonyl)-pyrrolidin-3-yl]-methyl-carbamic acid 4-fluoro-phenyl ester], the Ki is reported as 0.7 nM.
`CN(C(=O)Oc1ccc(F)cc1)[C@H]1CN(C(=O)C2CCN(C(=O)C3(C)CC3)CC2)C[C@H]1c1ccc(Cl)c(Cl)c1` (racemic) [Example 40, rac-{(3R,4R)-4-(3,4-Dichloro-phenyl)-1-[1-(1-methyl-cyclopropanecarbonyl)-piperidine-4-carbonyl]-pyrrolidin-3-yl}-methyl-carbamic acid 4-fluoro-phenyl ester] was tested, and the Ki was 4.2 nM.
In the case of `CC1(C(=O)N2CCC(C(=O)N3C[C@H](NC(=O)Oc4ccc(F)cc4)[C@@H](c4ccc(Cl)c(Cl)c4)C3)CC2)CC1` (racemic) [Example 43, rac-{(3R,4S)-4-(3,4-Dichloro-phenyl)-1-[1-(1-methyl-cyclopropanecarbonyl)-piperidine-4-carbonyl]-pyrrolidin-3-yl}-carbamic acid 4-fluoro-phenyl ester], the Ki is reported as 3.4 nM.
For `CN(C(=O)Oc1ccc(F)cc1)[C@H]1CN(C(=O)C2CCOCC2)C[C@@H]1c1ccc(Cl)c(Cl)c1` (racemic) [Example 44, rac-[(3R,4S)-4-(3,4-Dichloro-phenyl)-1-(tetrahydro-pyran-4-carbonyl)-pyrrolidin-3-yl]-methyl-carbamic acid 4-fluoro-phenyl ester], the Ki was 2.9 nM.
For `CN(C(=O)Oc1ccc(F)cc1)[C@H]1CN(C(=O)[C@H]2CC[C@@H](O)CC2)C[C@@H]1c1ccc(Cl)c(Cl)c1` (racemic) [Example 47, rac-[(3R,4S)-4-(3,4-Dichloro-phenyl)-1-(cis-4-hydroxy-cyclohexanecarbonyl)-pyrrolidin-3-yl]-methyl-carbamic acid 4-fluoro-phenyl ester], the Ki was 3.4 nM.
`CN(C(=O)Oc1ccc(F)cc1)[C@H]1CN(C(=O)N2CCOCC2)C[C@@H]1c1ccc(Cl)c(Cl)c1` (racemic) [Example 48, rac-[(3R,4S)-4-(3,4-Dichloro-phenyl)-1-(morpholine-4-carbonyl)-pyrrolidin-3-yl]-methyl-carbamic acid 4-fluoro-phenyl ester] gave a Ki of 29.4 nM.
Work on `CO[C@H]1CC[C@@H](C(=O)N2C[C@H](c3ccc(Cl)c(Cl)c3)[C@@H](N(C)C(=O)Oc3ccc(F)cc3)C2)CC1` (racemic) [Example 49, rac-[(3R,4S)-4-(3,4-Dichloro-phenyl)-1-(cis-4-methoxy-cyclohexanecarbonyl)-pyrrolidin-3-yl]-methyl-carbamic acid 4-fluoro-phenyl ester] yielded a Ki of 3.5 nM.
`CN(C(=O)Oc1ccc(F)cc1)[C@H]1CN(C(=O)[C@H]2CC[C@](C)(O)CC2)C[C@@H]1c1ccc(Cl)c(Cl)c1` (racemic) [Example 52, rac-[(3R,4S)-4-(3,4-Dichloro-phenyl)-1-(trans-4-hydroxy-4-methyl-cyclohexanecarbonyl)-pyrrolidin-3-yl]-methyl-carbamic acid 4-fluoro-phenyl ester] was tested, and the Ki was 8.1 nM.
For `CN(C(=O)Oc1ccc(F)cc1)[C@H]1CN(C(=O)[C@H]2CC[C@@](C)(O)CC2)C[C@@H]1c1ccc(Cl)c(Cl)c1` (racemic) [Example 53, rac-[(3R,4S)-4-(3,4-Dichloro-phenyl)-1-(cis-4-hydroxy-4-methyl-cyclohexanecarbonyl)-pyrrolidin-3-yl]-methyl-carbamic acid 4-fluoro-phenyl ester], the Ki was 4.7 nM.
For `CN(C(=O)Oc1ccc(F)cc1)[C@H]1CN(C(=O)CCC(N)=O)C[C@@H]1c1ccc(Cl)c(Cl)c1` (racemic) [Example 55, rac-[(3R,4S)-1-(3-Carbamoyl-propionyl)-4-(3,4-dichloro-phenyl)-pyrrolidin-3-yl]-methyl-carbamic acid 4-fluoro-phenyl ester], the Ki was 86.1 nM.

Same assay, conditions: hNK-3 receptor affinity; membranes from HEK293 cells transiently expressing recombinant human NK3 receptor; [3H]SR142801; Cheng-Prussoff; read-out: Data Ki
For `CN(C(=O)OCCC1CC1)[C@H]1CN(C(=O)C2CCN(C(=O)C3(C)CC3)CC2)C[C@@H]1c1ccc(Cl)c(Cl)c1` (racemic) [Example 25, rac-{(3R,4S)-4-(3,4-Dichloro-phenyl)-1-[1-(1-methyl-cyclopropanecarbonyl)-piperidine-4-arbonyl]-pyrrolidin-3-yl}-methyl-carbamic acid 2-cyclopropyl-ethyl ester], the Ki was 5.4 nM.
